Experimental data reported in the NIST ThermoML archive (doi:10.1016/j.jct.2018.07.004).
“And” between values parts separate entries of the source, which are not always exact repeats. Identical values can stand only once. ± gives the expanded uncertainty stated by the source.

Settings: Calculated from knudsen effusion weight loss

CCn1cc[n+](C)c1.O=S(=O)([N-]S(=O)(=O)C(F)(F)F)C(F)(F)F
vapor or sublimation pressure (433.05 K, Liquid): 2.8e-06 ± 3.2e-06 kPa
vapor or sublimation pressure (433.1 K, Liquid): 3e-06 ± 3.2e-06 kPa
vapor or sublimation pressure (438.04 K, Liquid): 4.2e-06 ± 3.2e-06 kPa
vapor or sublimation pressure (438.1 K, Liquid): 4.3e-06 ± 3.2e-06 kPa
vapor or sublimation pressure (438.12 K, Liquid): 4.5e-06 ± 3.2e-06 kPa
vapor or sublimation pressure (443.04 K, Liquid): 5.9e-06 ± 3.2e-06 kPa
vapor or sublimation pressure (443.09 K, Liquid): 6.3e-06 ± 3.2e-06 kPa
vapor or sublimation pressure (443.12 K, Liquid): 6.3e-06 ± 3.2e-06 kPa
vapor or sublimation pressure (448.03 K, Liquid): 8.4e-06 ± 3.2e-06 kPa
vapor or sublimation pressure (448.09 K, Liquid): 8.8e-06 ± 3.2e-06 kPa
vapor or sublimation pressure (448.12 K, Liquid): 8.9e-06 ± 3.2e-06 kPa
vapor or sublimation pressure (453.03 K, Liquid): 1.18e-05 ± 3.2e-06 kPa
vapor or sublimation pressure (453.09 K, Liquid): 1.23e-05 ± 3.2e-06 kPa
vapor or sublimation pressure (453.11 K, Liquid): 1.25e-05 ± 3.2e-06 kPa and 1.21e-05 ± 3.2e-06 kPa
vapor or sublimation pressure (453.12 K, Liquid): 1.25e-05 ± 3.2e-06 kPa
vapor or sublimation pressure (458.01 K, Liquid): 1.71e-05 ± 3.2e-06 kPa
vapor or sublimation pressure (458.02 K, Liquid): 1.66e-05 ± 3.2e-06 kPa
vapor or sublimation pressure (458.09 K, Liquid): 1.72e-05 ± 3.2e-06 kPa
vapor or sublimation pressure (458.11 K, Liquid): 1.76e-05 ± 3.3e-06 kPa
vapor or sublimation pressure (458.13 K, Liquid): 1.72e-05 ± 3.2e-06 kPa
vapor or sublimation pressure (463.05 K, Liquid): 2.29e-05 ± 3.3e-06 kPa
vapor or sublimation pressure (463.08 K, Liquid): 2.39e-05 ± 3.3e-06 kPa
vapor or sublimation pressure (463.1 K, Liquid): 2.45e-05 ± 3.3e-06 kPa and 2.42e-05 ± 3.3e-06 kPa
vapor or sublimation pressure (463.12 K, Liquid): 2.38e-05 ± 3.3e-06 kPa
vapor or sublimation pressure (463.13 K, Liquid): 2.39e-05 ± 3.3e-06 kPa
vapor or sublimation pressure (468.04 K, Liquid): 3.16e-05 ± 3.5e-06 kPa
vapor or sublimation pressure (468.08 K, Liquid): 3.27e-05 ± 3.4e-06 kPa
vapor or sublimation pressure (468.1 K, Liquid): 3.41e-05 ± 3.4e-06 kPa
vapor or sublimation pressure (468.11 K, Liquid): 3.33e-05 ± 3.4e-06 kPa
vapor or sublimation pressure (468.12 K, Liquid): 3.29e-05 ± 3.5e-06 kPa
vapor or sublimation pressure (468.13 K, Liquid): 3.32e-05 ± 3.5e-06 kPa
vapor or sublimation pressure (473.04 K, Liquid): 4.32e-05 ± 3.9e-06 kPa
vapor or sublimation pressure (473.07 K, Liquid): 4.5e-05 ± 3.6e-06 kPa
vapor or sublimation pressure (473.1 K, Liquid): 4.61e-05 ± 3.6e-06 kPa
vapor or sublimation pressure (473.12 K, Liquid): 4.51e-05 ± 3.7e-06 kPa
vapor or sublimation pressure (473.13 K, Liquid): 4.53e-05 ± 3.7e-06 kPa
vapor or sublimation pressure (473.14 K, Liquid): 4.69e-05 ± 3.9e-06 kPa
vapor or sublimation pressure (478.04 K, Liquid): 5.84e-05 ± 4e-06 kPa
vapor or sublimation pressure (478.07 K, Liquid): 6.13e-05 ± 3.9e-06 kPa
vapor or sublimation pressure (478.09 K, Liquid): 6.25e-05 ± 3.9e-06 kPa
vapor or sublimation pressure (478.12 K, Liquid): 6.08e-05 ± 4.1e-06 kPa and 6.16e-05 ± 4.2e-06 kPa
vapor or sublimation pressure (478.13 K, Liquid): 6.12e-05 ± 4.1e-06 kPa
vapor or sublimation pressure (483.04 K, Liquid): 7.83e-05 ± 4.8e-06 kPa
vapor or sublimation pressure (483.06 K, Liquid): 8.23e-05 ± 4.4e-06 kPa
vapor or sublimation pressure (483.08 K, Liquid): 8.4e-05 ± 4.4e-06 kPa
vapor or sublimation pressure (483.11 K, Liquid): 8.32e-05 ± 4.4e-06 kPa and 8.24e-05 ± 4.4e-06 kPa
vapor or sublimation pressure (483.12 K, Liquid): 8.26e-05 ± 4.9e-06 kPa
vapor or sublimation pressure (488.05 K, Liquid): 0.0001107 ± 5.3e-06 kPa
vapor or sublimation pressure (488.06 K, Liquid): 0.0001105 ± 5.3e-06 kPa
vapor or sublimation pressure (488.08 K, Liquid): 0.000112 ± 5.3e-06 kPa
vapor or sublimation pressure (488.11 K, Liquid): 0.0001112 ± 5.3e-06 kPa and 0.0001115 ± 5.3e-06 kPa
vapor or sublimation pressure (493.05 K, Liquid): 0.0001465 ± 7e-06 kPa
vapor or sublimation pressure (493.07 K, Liquid): 0.0001477 ± 7e-06 kPa
vapor or sublimation pressure (493.1 K, Liquid): 0.0001477 ± 7e-06 kPa
vapor or sublimation pressure (493.11 K, Liquid): 0.0001477 ± 7e-06 kPa
vapor or sublimation pressure (498.1 K, Liquid): 0.0001931 ± 9.2e-06 kPa
vapor or sublimation pressure (498.11 K, Liquid): 0.0001943 ± 9.2e-06 kPa
vapor or sublimation pressure (503.1 K, Liquid): 0.0002516 ± 1.2e-05 kPa and 0.0002533 ± 1.2e-05 kPa

c1ccc(-c2cc(-c3ccccc3)cc(-c3ccccc3)c2)cc1 [1,3,5-triphenylbenzene]
vapor or sublimation pressure (408.04 K, Crystal): 0.000144 ± 7.5e-06 kPa
vapor or sublimation pressure (408.05 K, Crystal): 0.0001488 ± 7.3e-06 kPa
vapor or sublimation pressure (408.16 K, Crystal): 0.0001536 ± 7.5e-06 kPa
vapor or sublimation pressure (413.04 K, Crystal): 0.0002384 ± 1.2e-05 kPa
vapor or sublimation pressure (413.05 K, Crystal): 0.000247 ± 1.2e-05 kPa
vapor or sublimation pressure (413.16 K, Crystal): 0.0002528 ± 1.2e-05 kPa
vapor or sublimation pressure (418.03 K, Crystal): 0.0003878 ± 2.1e-05 kPa
vapor or sublimation pressure (418.05 K, Crystal): 0.0004034 ± 2e-05 kPa
vapor or sublimation pressure (418.15 K, Crystal): 0.0004157 ± 2e-05 kPa
vapor or sublimation pressure (423.03 K, Crystal): 0.0006219 ± 3.3e-05 kPa and 0.0006345 ± 3.2e-05 kPa
vapor or sublimation pressure (423.04 K, Crystal): 0.0006477 ± 3.2e-05 kPa
vapor or sublimation pressure (423.16 K, Crystal): 0.0006722 ± 3.3e-05 kPa
vapor or sublimation pressure (428.03 K, Crystal): 0.0009832 ± 5.6e-05 kPa
vapor or sublimation pressure (428.04 K, Crystal): 0.001026 ± 8.3e-05 kPa
vapor or sublimation pressure (428.16 K, Crystal): 0.001081 ± 8.8e-05 kPa
